From PubChem BioAssay (NCI)
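Five concentrations, 48 hours, 96-well plates. TGI: total growth inhibition.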

Key:
Test in all cases: NCI anticancer screen, dose series, 48 h
786-0 renal = tested on: 786-0 renal
A498 renal = tested on: A498 renal
A549 NSCLC = tested on: A549 NSCLC
ACHN renal = tested on: ACHN renal
BT-549 breast = tested on: BT-549 breast
CAKI-1 renal = tested on: CAKI-1 renal
COLO 205 colon = tested on: COLO 205 colon
DU-145 prostate = tested on: DU-145 prostate
EKVX NSCLC = tested on: EKVX NSCLC
HCC-2998 colon = tested on: HCC-2998 colon
HCT-116 colon = tested on: HCT-116 colon
HCT-15 colon = tested on: HCT-15 colon
HOP-62 NSCLC = tested on: HOP-62 NSCLC
HT29 colon = tested on: HT29 colon
IGROV1 ovarian = tested on: IGROV1 ovarian
K-562 leukemia = tested on: K-562 leukemia
KM12 colon = tested on: KM12 colon
LOX IMVI melanoma = tested on: LOX IMVI melanoma
M14 melanoma = tested on: M14 melanoma
MALME-3M melanoma = tested on: MALME-3M melanoma
MCF7 breast = tested on: MCF7 breast
MDA-MB-231 breast = tested on: MDA-MB-231 breast
MDA-MB-435 = tested on: MDA-MB-435
MOLT-4 leukemia = tested on: MOLT-4 leukemia
NCI-H226 lung = tested on: NCI-H226 lung
NCI-H23 lung = tested on: NCI-H23 lung
NCI-H460 lung = tested on: NCI-H460 lung
NCI/ADR-RES ovarian = tested on: NCI/ADR-RES ovarian
OVCAR-3 ovarian = tested on: OVCAR-3 ovarian
OVCAR-4 ovarian = tested on: OVCAR-4 ovarian
OVCAR-5 ovarian = tested on: OVCAR-5 ovarian
OVCAR-8 ovarian = tested on: OVCAR-8 ovarian
PC-3 prostate = tested on: PC-3 prostate
RPMI-8226 leukemia = tested on: RPMI-8226 leukemia
RXF 393 renal = tested on: RXF 393 renal
SF-268 CNS = tested on: SF-268 CNS
SF-295 CNS = tested on: SF-295 CNS
SF-539 CNS = tested on: SF-539 CNS
SK-MEL-2 melanoma = tested on: SK-MEL-2 melanoma
SK-MEL-28 melanoma = tested on: SK-MEL-28 melanoma
SK-MEL-5 melanoma = tested on: SK-MEL-5 melanoma
SK-OV-3 ovarian = tested on: SK-OV-3 ovarian
SNB-19 CNS = tested on: SNB-19 CNS
SR leukemia = tested on: SR leukemia
SW-620 colon = tested on: SW-620 colon
T-47D breast = tested on: T-47D breast
TK-10 renal = tested on: TK-10 renal
U251 CNS = tested on: U251 CNS
UACC-257 melanoma = tested on: UACC-257 melanoma
UACC-62 melanoma = tested on: UACC-62 melanoma
UO-31 renal = tested on: UO-31 renal

CC(C)OC(=O)/C=C/C(=O)O/C=C/[N+](=O)[O-]
TGI (786-0 renal): > 100 µM | TGI (A498 renal): 40.4 µM | TGI (A549 NSCLC): > 100 µM | TGI (ACHN renal): > 100 µM | TGI (BT-549 breast): 90.4 µM | TGI (CAKI-1 renal): > 100 µM | TGI (COLO 205 colon): 38.3 µM | TGI (DU-145 prostate): > 100 µM | TGI (EKVX NSCLC): > 100 µM | TGI (HCC-2998 colon): 50.2 µM | TGI (HCT-116 colon): 54.3 µM | TGI (HCT-15 colon): > 100 µM | TGI (HOP-62 NSCLC): > 100 µM | TGI (HT29 colon): > 100 µM | TGI (IGROV1 ovarian): 63 µM | TGI (K-562 leukemia): 66.8 µM | TGI (KM12 colon): 70.6 µM | TGI (LOX IMVI melanoma): 32.9 µM | TGI (M14 melanoma): > 100 µM | TGI (MALME-3M melanoma): 63.7 µM | TGI (MCF7 breast): 54.9 µM | TGI (MDA-MB-231 breast): > 100 µM | TGI (MDA-MB-435): > 100 µM | TGI (MOLT-4 leukemia): 36.5 µM | TGI (NCI-H226 lung): > 100 µM | TGI (NCI-H23 lung): > 100 µM | TGI (NCI-H460 lung): > 100 µM | TGI (NCI/ADR-RES ovarian): > 100 µM | TGI (OVCAR-3 ovarian): > 100 µM | TGI (OVCAR-4 ovarian): > 100 µM | TGI (OVCAR-5 ovarian): > 100 µM | TGI (OVCAR-8 ovarian): > 100 µM | TGI (PC-3 prostate): > 100 µM | TGI (RPMI-8226 leukemia): 33.9 µM | TGI (RXF 393 renal): 44 µM | TGI (SF-268 CNS): 68.7 µM | TGI (SF-295 CNS): > 100 µM | TGI (SF-539 CNS): > 100 µM | TGI (SK-MEL-2 melanoma): 46.4 µM | TGI (SK-MEL-28 melanoma): > 100 µM | TGI (SK-MEL-5 melanoma): > 100 µM | TGI (SK-OV-3 ovarian): > 100 µM | TGI (SNB-19 CNS): > 100 µM | TGI (SR leukemia): 71.6 µM | TGI (SW-620 colon): > 100 µM | TGI (T-47D breast): 46.4 µM | TGI (TK-10 renal): > 100 µM | TGI (U251 CNS): > 100 µM | TGI (UACC-257 melanoma): > 100 µM | TGI (UACC-62 melanoma): 84.7 µM | TGI (UO-31 renal): > 100 µM
